{"source": "paper PMC10254235", "about": "“Design, Synthesis, and Anti-Cervical Cancer and Reversal of Tumor Multidrug Resistance Activity of Novel Nitrogen-Containing Heterocyclic Chalcone Derivatives” (Molecules, 2023)", "key": {"[1]": {"tested_on": "SiHa cells", "test": "MTT antiproliferative assay, SiHa cells", "assay_type": "cell-based, human", "conditions": "Homo sapiens, 48 h, mean ± SD", "method": "(§1) HeLa and SiHa cell lines were obtained from the Procell Life Science Technology Co., Ltd. (Wuhan, China); H8 cell line was obtained from the Shanghai HonSun Biological Technology Co., Ltd. (Shanghai, China); HUVEC cell line was obtained from the Saibaikang (Shanghai) Biotechnology Co., Ltd. (Shanghai, China); HeLa/DDP cell line was obtained from the Guangzhou Jenniobio Biotechnology Co., Ltd. (Guangzhou, China). HeLa, SiHa, H8, and HeLa/DDP cells were cultured in DMEM medium (HyClone). The VEGF of 50 ng/mL was used as the promoter of the VEGFR-2 receptor on HUVEC cell membrane surfaces, and their inhibitory effects on VEGFR-2 were determined. All the mediums were supplemented with 10% FBS (HyClone, GE Healthcare, Australia). Cells were maintained at subconfluency at 37 °C in humidified air containing 5% CO2. The cells were monitored daily and maintained at 80% cell density. All compounds tested were dissolved in DMSO and then diluted by the culture medium before the treatment of cultured cells. Identification reports are available for all types of cell lines involved in this study.\n(§2) The cytotoxicity of the target compounds were measured in vitro using the MTT assay. Cells grown in the logarithmic phase were counted and seeded in 96-well cell culture plates (5 × 10^3 cells per well) for 24 h to allow attachment of cells to the wall of the plate. […] Next, 20 μL of 5 mg.mL^−1 MTT solution was added to each well and cultured for 4 h. The old solution was discarded, replaced with 150 μL DMSO solution per well, and shaken for 10 min. The OD value was measured under 490 nm, and the inhibition rate was calculated. The nonlinear regression fitting of the cell growth rate was carried out using SPSS 23.0 software, and the IC50 of the compound was calculated. […] There were 6 compound holes in each group, and the experimental results were presented as the average of 3 experiments. A complete medium containing only cells was used as the blank control, whereas a complete medium without cells was the negative control group. Cisplatin and sorafenib were utilized as the positive control group, and the target compound was the experimental intervention group."}, "[2]": {"tested_on": "H8 cells", "test": "MTT cytotoxicity assay, normal cervical epithelial H8 cells", "assay_type": "cell-based, human", "conditions": "Homo sapiens, 48 h, mean ± SD", "method": "as §1, §2"}, "[3]": {"tested_on": "HUVEC cells", "test": "In vitro HUVEC inhibitory assay (MTT)", "assay_type": "cell-based", "conditions": "Homo sapiens, 48 h, ± SD", "method": "as §1, §2\nAfter incubation for 24 h, the cell was collected using centrifugation and washed twice using PBS chilled to 0 °C. Then, the cells were homogenized in RIPA lysis buffer and 1% PMSF, 1% mixed phosphatase inhibitor (Solarbio, Beijing, China). The lysates were incubated on ice for 30 min, intermittently vortexed every 5 min, and centrifuged at 12,000 rpm for 20 min to harvest the supernatants."}, "[4]": {"tested_on": "HeLa/DDP cells", "test": "MTT assay, cisplatin-resistant HeLa/DDP cells", "assay_type": "cell-based, human", "description": "The cytotoxicity of the target compounds were measured in vitro using the MTT assay. Cells grown in the logarithmic phase were counted and seeded in 96-well cell culture plates (5 × 10^3 cells per well) for 24 h to allow attachment of cells to the wall of the plate. […] Next, 20 μL of 5 mg.mL^−1 MTT solution was added to each well and cultured for 4 h. The old solution was discarded, replaced with 150 μL DMSO solution per well, and shaken for 10 min. The OD value was measured under 490 nm, and the inhibition rate was calculated. The nonlinear regression fitting of the cell growth rate was carried out using SPSS 23.0 software, and the IC50 of the compound was calculated. […] A complete medium containing only cells was used as the blank control, whereas a complete medium without cells was the negative control group."}, "[5]": {"tested_on": "HeLa cells", "test": "Transwell invasion assay (Matrigel)", "assay_type": "cell-based, human", "conditions": "24 h, control 172", "method": "The transwell ([…], Corning Incorporated, New York, NY, USA) was precoated using 50 μL Matrigel for 5 h at 37 °C to achieve solidification. […] After 24 h of incubation at 37 °C, the invasion cells were fixed using methanol and stained using 0.1% crystal violet for 30 min, respectively. Then, the chambers were washed using PBS and left to dry. Images were photographed using an inverted fluorescence microscope (Leica, Microsystems CMS GmbH, GER) and counted using Image J software (V1.8.0.112) for three independent fields randomly."}, "[6]": {"tested_on": "p-VEGFR-2", "test": "Western blot, VEGFR-2 phosphorylation in HeLa/DDP cells", "assay_type": "cell-based, human", "conditions": "4 and 6 μM, versus blank group, p < 0.05", "method": "Next, the protein concentrations were determined using a BCA Protein Assay Kit (Solarbio, China). An equal amount of the proteins (12 μg) were separated using 8–12% sodium dodecyl sulfate–polyacrylamide gel electrophoresis (SDS-PAGE) and transferred to nitrocellulose membranes (Amersham Biosciences, Little Chalfont, Buckinghamshire, UK). Then, the membranes were blocked with 5% nonfat dried milk in TBS containing 1% Tween-20 for 2 h at room temperature and were incubated overnight with specific primary antibodies (CST, Boston, MA, USA) at 4 °C. After three washes in TBST, the membranes were incubated with the appropriate HRP-conjugated secondary antibodies at room temperature for 2 h. The blots were developed using enhanced chemiluminescence (Biosharp, Shanghai, China) and were detected using a PE 0723 imager (ProteinSimple, Silicon Valley, CA, USA). Each experiment was performed at least in triplicate and analyzed using Image J software (V1.8.0.112). […]\nTo reduce the adverse reactions caused by the fixation of drug resistance reversal agents, the concentration that reduces the proliferation rate of tumor cells by less than 10% was selected. Therefore, the inhibitory activity of compound 6f on HeLa/DDP cells was determined in the concentration ranges of 0.25, 0.5, and 1 μM combined with cisplatin. […]"}}}
{"smiles": "COc1cc(O)c(C(=O)/C=C/c2ccc(CN3CCC(C)CC3)cc2)cc1CN1CCC(O)CC1", "note": "[6f, (E)-1-(2-hydroxy-5-((4-hydroxypiperidin-1-yl)methyl)-4-methoxyphenyl)-3-(4-((4-methylpiperidin-1-yl)methyl)phenyl)prop-2-en-1-one]", "values": [{"measurement": "IC50", "setting": "[1]", "value": "7.88 ± 0.52", "unit": "µM"}, {"measurement": "IC50", "setting": "[2]", "value": "30.1 ± 2.51", "unit": "µM"}, {"measurement": "IC50", "setting": "[3]", "value": "7.14 ± 0.91", "unit": "µM"}, {"measurement": "inhibitory rate on HeLa/DDP cell line", "setting": "[4]; 6f alone at 0.25, 0.5 and 1 μM", "value": "less than 10%"}, {"measurement": "RI (resistance index)", "setting": "[4]; HeLa/DDP versus HeLa, single agent", "value": 1.19}, {"measurement": "IC50", "setting": "[4]; Homo sapiens, cisplatin-resistant HeLa/DDP cells, single agent, 48 h, read-out: 48h IC50 HeLa/DDP", "value": "7.74 ± 0.36", "unit": "µM"}, {"measurement": "number of invading cells", "setting": "[5]; 2 μM", "value": 91}, {"measurement": "number of invading cells", "setting": "[5]; 4 μM", "value": 50}, {"measurement": "number of invading cells", "setting": "[5]; 6 μM", "value": 35}, {"measurement": "phosphorylation of VEGFR-2 in HeLa/DDP cells (Western blot)", "setting": "[6]", "value": "noteworthy ability to impede the phosphorylation of VEGFR-2"}]}
